Measured values from patent US11925618B2, “Pharmaceutical combination for the treatment of cancer” (Piramal Enterprises Limited, priority 2014, dated 2024).
Where two headings read alike, the source gives them in different places.

Experiments:
Format in all cases: cell-based
FaDu cell lines = assay: CGI (cell growth inhibition, propidium iodide) assay in FaDu cell lines
Experimental: (§1) The media was removed from the flask containing cells and 2-3 mL of sterile 1×DPBS was added to the flask. The DPBS was then removed from the flask and 2 mL of trypsin was added to the flask. The flask was kept in the incubator for a few seconds. The cells were then checked whether dislodged and if dislodged, 2 mL of serum was added to the flask. To the flask was then added 5-6 mL of media and swirled. The media was collected from the flask and centrifuged at 600 rpm for 10 min.
(§2) The supernatant solution was decanted and the pellet was re-suspended in 10 mL of media. To a 1.7 mL MCT; 50 μL of tryphan blue, 40 μL of media and 10 μL of cell suspension were added. The solution was then vortexed and 10 μL of this solution was loaded on a hemocytometer. The cells were counted in hemocytometer chambers and further calculated to get a count of ≥3000 cells/well/200 μL.
(§3) The cell stock was prepared using respective media and FBS, and 200 μL of the cell stock was added to each well (except media control wells) of white delta treated 96 well plate using a multi-channel pipette. To the media control wells, 200 μL of media was added. The plates were then incubated at 37° C. for 12-16 h.
(§4) The drug (the therapeutic agent) i.e. the CDK inhibitor and the antioxidant enzyme inhibitor were separately diluted to 10 folds using DMSO. The media of the plates was changed before the addition of drug to the plates and these plates were then placed in the incubator. 1 μL of CDK inhibitor and antioxidant enzyme inhibitor was added simultaneously to the respective wells and placed on the plate shaker for 15-30 mins. The plates were then placed back in incubator for 72 h or the time of incubation as decided.
(§5) 200 μL of media from each well was gently aspirated and then added 100 μL of 1×DPBS at room temperature to each well. The working stock of PI (stock 1 mg/mL) was prepared using 140 μL of PI and 20 mL of 1×DPBS for one plate. Then 1×DPBS was removed from the wells and 200 μL of PI working stock was added to each well. These plates were kept in dark for 5-10 min at room temperature on a shaker, after which the plates were stored at −80° C. until reading of the plate.
(§6) The plate was read in Spectramax fluorescence excitation maximum is 535 nm and the emission maximum is 617 nm.
Cell lines: The cell lines of FaDu for head and neck squamous cell carcinomas (HNSCC) obtained from ATCC (American Tissue type Culture Collection), USA were used in this study.
The analysis of combination index (CI) and cell growth inhibition was carried out using CGI assay method. […]
The combination studies of CDK inhibitor with TrxR inhibitor, auranofin was carried out at 12, 24, 48 and 72 h and the time point for which optimum synergy was obtained was determined. […]

MDA-MB-231 cell lines = assay: CGI (cell growth inhibition, propidium iodide) assay in MDA-MB-231 cell lines; conditions: determined at 72 h
Experimental: as §1, §2, §3, §4, §5, §6
Cell lines: The cell lines of MDA-MB-231 for triple negative breast cancer (TNBC) obtained from ATCC (American Tissue type Culture Collection), USA were used in this study.
The analysis of combination index and cell growth inhibition was carried out using CGI assay method. […]
The combination studies of CDK inhibitor with each of the TrxR inhibitors, auranofin, ebselen and ATO was carried out at 12, 24, 48 and 72 h and the time point for which optimum synergy was obtained was determined. […]

[1] = test system: ROS production in FaDu cells; assay: Cellular ROS detection assay using DCFDA; conditions: single agent
Experimental: as §1
as §2, with “≥25000” for “≥3000”, “μL. […]” for “μL.”
The plate was read in Spectamax fluoroscence excitation maximum is 485 nm and the emission maximum is 535 nm. […]
The […] cells were treated with various concentrations (μM) of auranofin or voruciclib alone or in combination. […] The treated FaDu/MDAMB-431 cells were analyzed on a fluorescent plate reader vis-a-vis the cells of positive control which were treated with 50 μM tert-butyl hydrogen peroxide (TBHP). […]

[2] = test system: Thioredoxin Reductase (TrxR); assay: TrxR activity assay (DTNB reduction) in FaDu cell lysates; conditions: FaDu cells, DTNB reduction with or without ATM
Experimental: • (i) Cell lines: The cell lines of FaDu for head and neck squamous cell carcinomas (HNSCC) obtained from ATCC (American Tissue type Culture Collection), USA. • (ii) DTNB: Dithio nitro benzoic acid • (iii) ATM: Aurothiomalate
TrxR assay was conducted in six-well plates with 1M cells per well. The cells were treated with various concentrations of auranofin or voruciclib and in combination of both. The TrxR activity was measured in cell lysates using DTNB (Dithio nitro benzoic acid). The DINS was reduced to TNB (Thio nito benzoic acid) with or without a specific TrxR inhibitor, Aurothiomalate (ATM). The TrxR activity was calculated based on the difference in slope obtained from linear kinetic of DTNB reduction with or without ATM treatment.
The effect of auranofin and voruciclib combination on TrxR activity assay in FaDu cells are depicted in FIG. 16. The data is represented as mean±SEM (N=2) of % TrxR activity (Y-axis) and various concentration (μM) of Auranofin or voruciclib or combination of both (X-axis); PC—Positive control, C—Vehicle control.

Which results are given for O=c1c2ccccc2[se]n1-c1ccccc1 [Ebselen]?
EC50 (FaDu cell lines; Homo sapiens, FaDu, 72 h): 4.02 µM; EC50 (MDA-MB-231 cell lines; Homo sapiens): 3.89 µM

Arsenic trioxide [ATO] was tested. Which EC50 (FaDu cell lines; FaDu cell lines, determined at 72 h, read-out: EC50) did it give?
Its EC50 is 4.87 µM.

What about the EC50 (MDA-MB-231 cell lines) of the same compound?
The EC50 was 5.19 µM.

How did the EC50 (FaDu cell lines; FaDu cell lines, determined at 48 h, read-out: EC50) turn out when CC(=O)OC[C@H]1O[C@@H]([S-])[C@H](OC(C)=O)[C@@H](OC(C)=O)[C@@H]1OC(C)=O.CCP(CC)CC.[Au+] [Auranofin] was run?
Its EC50 is 0.15 µM.

What about the EC50 (MDA-MB-231 cell lines) of the same compound?
The EC50 was 0.15 µM.

And the “increase in ROS level as compared to untreated control” value [1]?
Its value is roughly 100%.

What about the “effect on TrxR activity” value [2] of the same compound?
The value was “concentration dependent reduction”.

Which EC50 (FaDu cell lines; Homo sapiens, FaDu cell lines, determined at 48 h, read-out: EC50) does the source give for CN1CC[C@@H](c2c(O)cc(O)c3c(=O)cc(-c4ccc(C(F)(F)F)cc4Cl)oc23)[C@@H]1CO.Cl [Voruciclib, (+)-2-[2-Chloro-4-(trifluoromethyl)phenyl]-5,7-dihydroxy-8-[(2R,3S)-2-(hydroxymethyl)-1-methylpyrrolidin-3-yl]-4H-chromen-4-one hydrochloride] here?
Its EC50 is 2.04 µM.

What about the EC50 (MDA-MB-231 cell lines; Homo sapiens) of the same compound?
The EC50 was 2.3 µM.

What about the “increase in ROS level as compared to untreated control” value [1] of the same compound?
The value was roughly 80%.

And the “effect on TrxR activity” value [2]?
Its value is “no effect”.
